Where a SMILES comes first, the peptide text is derived from it. Bridges are numbered along the chain shown (N, C = ends). [ ]: non-standard residue; d: D form. The star is where a group is joined. DOTA = O=C(O)CN1CCN(CC(=O)O)CCN(CC(=O)*)CCN(CC(=O)O)CC1; Cit = NC(=O)NCCC[C@H](N)C(=O)O
How the values were obtained:
[1] = biological target: T1, uPAR-expressing HEC-265 human endometrial adenocarcinoma cells (Homo sapiens, UniProt Q03405); experiment: Competitive FACS binding assay; conditions: pIC50 category of FACS binding
T1 construct: Cell surface uPAR-expressing HEC-265 human endometrial adenocarcinoma cells; host or cells: HEC-265
How it was run: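 Competitive displacement of a 10 nM biotinylated peptide from HEC-265 cells (1 h, 4 °C, PBS/1% BSA), detected via APC-streptavidin by flow cytometry. pIC50 from four-parameter logistic fit of median fluorescence versus concentration.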

human uPAR (uPAR-Fc) = biological target: T2, human uPAR (uPAR-Fc) (Homo sapiens, UniProt Q03405); experiment: Surface plasmon resonance (SPR) assay, single cycle kinetics; assay type: binding; conditions: pKD category for uPAR SPR activity assay; uPAR-Fc on Protein A-Chip, single cycle kinetics, 25°C; read-out: pKD CAT (converted)
T2 construct: comprising amino acids Leu23-Arg303 according to UniProt entry Q03405.1; purchased R&D Systems 10378-UK-100
How it was run: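 uPAR-Fc (Leu23-Arg303 extracellular domains, human IgG1 Fc) captured on Protein A chip to ~2000 RU; single-cycle kinetics at 25°C in HEPES running buffer pH 7.4 with 0.1% DMSO. KD from double-referenced sensorgrams fitted to 1:1 Langmuir model, reported as pKD.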

T2 sequence (Q03405 23-303): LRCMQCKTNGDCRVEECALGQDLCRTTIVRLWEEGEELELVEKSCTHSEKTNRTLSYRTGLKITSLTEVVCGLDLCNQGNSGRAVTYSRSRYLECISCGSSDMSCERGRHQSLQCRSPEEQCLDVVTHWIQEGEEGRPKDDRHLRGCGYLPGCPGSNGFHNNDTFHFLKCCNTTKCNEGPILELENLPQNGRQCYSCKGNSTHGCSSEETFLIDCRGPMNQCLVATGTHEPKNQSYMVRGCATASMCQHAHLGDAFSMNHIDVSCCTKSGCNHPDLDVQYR
T1 sequence (Q03405 23-335): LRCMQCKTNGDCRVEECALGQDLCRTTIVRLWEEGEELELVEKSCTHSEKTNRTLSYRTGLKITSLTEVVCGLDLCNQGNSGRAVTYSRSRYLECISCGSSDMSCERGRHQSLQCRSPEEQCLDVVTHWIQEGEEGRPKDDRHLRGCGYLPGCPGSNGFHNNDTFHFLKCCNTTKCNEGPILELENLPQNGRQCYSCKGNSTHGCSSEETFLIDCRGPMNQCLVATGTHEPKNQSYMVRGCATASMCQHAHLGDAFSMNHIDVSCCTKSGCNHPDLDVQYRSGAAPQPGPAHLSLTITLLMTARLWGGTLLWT

- IC50 [1]: 39.8 to 100 nM
- Kd (human uPAR (uPAR-Fc)): < 1.58 nM
Compound: CC[C@H](C)[C@@H]1NC(=O)[C@@H](C)NC(=O)[C@@H]2CCCN2C(=O)[C@H](Cc2ccccc2)NC(=O)[C@H](Cc2ccc(O)cc2)NC(=O)[C@H](CCC(N)=O)NC(=O)[C@H](CCCNC(N)=O)NC(=O)[C@@H](NC(=O)[C@H](CC(C)C)NC(=O)CN2CCN(CC(=O)O)CCN(CC(=O)O)CCN(CC(=O)O)CC2)CSSC[C@@H](C(N)=O)NC(=O)[C@H](CC(C)C)NC1=O [UPAR-441, DOTA-Leu-[Cys-Cit-Gln-Tyr-Phe-Pro-ala-Ile-Leu-Cys]-NH2] ({DOTA}-LC[Cit]QYFP[dA]ILC-NH2; disulfide 2-11)

From patent EP4610269A1, “UROKINASE PLASMINOGEN ACTIVATOR SURFACE RECEPTOR (UPAR) LIGANDS FOR DIAGNOSTIC OR THERAPEUTIC USE” (3B Pharmaceuticals GmbH, priority 2024, dated 2025)
